Legend:
A. tumefaciens VirE1 = assay: Real-time RT PCR of VirE1 transcripts in agroinfiltrated leaves; format: in vivo, Agrobacterium tumefaciens; conditions: 1 mM, seven days post-treatment
Procedure: mRNA transcripts for C5-1 and A. tumefaciens virulence proteins VirB1 and VirE1 were assayed by real-time RT PCR using an ABI PRISM 7500 Fast real-time PCR apparatus, system version 2.0.1 (Applied Biosystems, Carlsbad Calif., U.S.A.). Total RNA was extracted from two 1-cm^2 leaf discs collected on the third main stem leaf (Robert et al., 2013) using the Qiagen RNeasy plant mini kit (Qiagen), following the supplier's instructions. RNA samples were treated with DNase I (Roche Diagnostics) to remove contaminant DNA and assessed for quality and quantity using a Nanodrop® ND-1000 spectrophotometer (NanoDrop Technologies, Wilmington Del., USA). First-strand cDNA was synthesized from 500 ng of total RNA using 4 units of Omniscript reverse transcriptase (Qiagen) and 1 μM of oligo-dT (15) nucleotides (Roche). PCR reactions contained 10 μl of Fast SYBR Green PCR Master Mix (Applied Biosystems), 2 μl of cDNA template, and 2.5 μl each of appropriate forward and reverse primers at 625 nM final concentration (Table 1). A no-template mixture control was included in each 96-well plate. Amplification rounds consisted of a 20-s denaturation step at 95° C., followed by 40 two-step cycles of 3 s at 95° C. and 30 s at 60° C. […]

[1] = system: trypsin-like S1 Ser proteases; assay: Protease assay in leaf crude extracts, Z-Arg-MCA substrate; format: in vivo, Nicotiana benthamiana; conditions: 0.5 and 1 mM doses, seven days post-treatment
Procedure: Forty-two day-old N. benthamiana plants grown in greenhouse were used for the experiments. Each plant was sprayed evenly with 50 ml of 0.5 mM, 1 mM or 2 mM MeJA in water containing 0.1% (v/v) Triton X-100 (Sigma-Aldrich, Mississauga ON, Canada), or with 50 ml of 1 mM arachidonic acid (Girard et al., 2007) in the same solvent, and transferred for seven days in a Conviron growth chamber (Conviron, Winnipeg MB, Canada). Plants sprayed with 50 ml of 0.1% (v/v) Triton X-100 in water were used in parallel as negative controls to avoid confounding effects due to experimental conditions. […]
Whole leaf proteins were extracted from three 1-cm^2 leaf discs in 400 μl of ice-cold 50 mM Tris-HCl, pH 7.5, containing 150 mM NaCl, by disrupting the leaf samples with tungsten carbide beads (Qiagen, Mississauga ON, Canada) in a Mini-Beadbeater apparatus (BioSpec, Bartlesville Okla., USA). […] RuBisCO small subunit was detected using polyclonal IgG raised in rabbit against a synthetic small subunit peptide (Agrisera, Vännäs, Sweden) and alkaline phosphatase-conjugated goat anti-rabbit IgG as secondary antibodies (Sigma-Aldrich). RuBisCO large subunit was detected using polyclonal IgG raised in hen against a synthetic large subunit peptide (Agrisera) and alkaline phosphatase-conjugated goat anti-chicken IgG as secondary antibodies (Sigma-Aldrich). […]

CC/C=C\C[C@H]1C(=O)CC[C@@H]1CC(=O)OC [MeJA, methyl jasmonate]
VirE1 transcription versus control leaves (A. tumefaciens VirE1): no positive effect | trypsin-like activity [1]: minimal or no increase in activity

Source: US10907168B2, “Jasmonic acid pathway activator” (MEDICAGO INC., priority 2015, dated 2021)
